Data from PMC12115197, “Neuroprotective Potential of Tetraselmis chuii Compounds: Insights into Blood–Brain Barrier Permeability and Intestinal Transport” (Pharmaceuticals, 2025).
Several values for one entry are separate records, joined by “and”; a condition that tells them apart may be missing. Equal values may be shown once. Entries after “also recorded” stand apart in the source; their conditions may differ. Marks after values point to notes of the source that are not given here.

How the values were obtained:
Caco-2 cells = assay: Intestinal transepithelial transport study (Transwell, UHPLC-q-TOF-MS); assay type: in vitro ADME, human; conditions: for Permeability / transport to the lower compartment in Caco-2 cells, over the incubation times tested: OP-1 extract 40 µg mL−1, 2-24 h, time not specified (overall or maximum); for Te% ± SEM Caco-2 Cells 2 h: OP-1 extract 40 µg mL−1, 2 h; for Te% ± SEM Caco-2 Cells 2 h / Te% ± SEM Caco-2 Cells 4 h / Te% ± SEM Caco-2 Cells 24 h: Te = CLower/CUpper × 100; for Te% ± SEM Caco-2 Cells 4 h: OP-1 extract 40 µg mL−1, 4 h; for Te% ± SEM Caco-2 Cells 24 h: OP-1 extract 40 µg mL−1, 24 h
Protocol: (§1) The transport efficiency of bioactive compounds across the cell layer (Te) was calculated using the Equation (1) proposed by Pogačnik et al. (2016):Te = CLower/CUpper × 100%(1)
(§2) This calculation was performed to understand whether the compound crosses the cell layer and how efficiently it is transported. Here, CLower represents the relative concentration (peak area) of the compound in the lower compartment, and CUpper represents the relative concentration (peak area) of the compound in the upper compartment.
Caco-2 cells were grown according to the protocol described by Rojo-Poveda et al. (2020) to evaluate the intestinal permeability. Briefly, Caco-2 cells were seeded into inserts (0.4 μm pore, Corning Costar Corp., Corning, NY, USA) in 12-well plates. Then, 0.5 mL of complete DMEM culture medium containing approximately 300,000 cells was applied to the apical surface (AP) of each insert, and 1.5 mL of the same culture medium was added to the basolateral side (BL). Cells were allowed to grow for 21 days to differentiate and form a monolayer, changing the culture medium every 2–3 days.
The Caco-2 transport studies were performed using the same procedures as for HBMEC experiments (described in Section 4.5.2 and Section 4.5.3), but using DMEM as cell culture medium and recording TEER measurements.
(§3) Obtained samples from the transport assays performed in HBMEC and Caco-2 cells were extracted to recover and concentrate the bioactive compounds in the upper and lower compartments and to prevent possible interferences of the cell culture medium in the analyses. Briefly, dried samples were resuspended in 0.5 mL of H2O and mixed with vortex for 10 s. Then, 0.5 mL of AcOEt was added, mixed with vortex for 10 s, and centrifuged at 14,000 rpm for 5 min. After centrifugation, the supernatant (AcOEt) was carefully transferred to a 1.5 mL Eppendorf tube and dried in a SpeedVac (SPD1030, Thermo Fisher Scientific) device at 40 °C and 13 mbar pressure. Finally, the dried extracts were resuspended in 25 μL of pure ethanol for their subsequent analysis.
(§4) The analysis of the obtained samples from HBMEC cells, Caco-2 cells, and PAMPA-BBB experiments was carried out using the same conditions and instrumentation as in our previous study. Briefly, 10 μL of each sample was injected into an Agilent 1290 UHPLC system equipped with a DAD detector and coupled to an Agilent 6540 q-TOF/MS equipped with an orthogonal atmospheric pressure chemical ionization (APCI) source, all from Agilent Technologies (Santa Clara, CA, USA). Carotenoids were separated using a Thermo Fisher Scientific Accucore C30 column (2.6 μm, 4.6 × 50 mm), applying a flow rate of 0.8 mL min^−1 at 30 °C. Methanol/MTBE/water (90:7:3%) and methanol/MTBE (10:90%) were used as mobile phases, and the chromatographic gradient started with 0%B, changing it to 100%B within 12 min. This was kept constant for 1.5 min before returning to the initial conditions.
(§5) The results were processed using the Agilent Mass Hunter Qualitative software (version B.10.0). A peak intensity threshold of 5000 (nearly 4 times the noise signal) in the upper compartments was applied to obtain reliable and accurate results, and a relative quantification was performed. Peaks below this threshold value were excluded from the analysis.

HBMEC cells = assay: Blood-brain barrier transport study (Transwell, UHPLC-q-TOF-MS); assay type: in vitro ADME, human; conditions: for Permeability / transport to the lower compartment in HBMEC cells, over the incubation times tested: OP-1 extract 40 µg mL−1, 2-24 h, time not specified (overall or maximum); for Te% ± SEM HBMEC Cells 2 h: OP-1 extract 40 µg mL−1, 2 h; for Te% ± SEM HBMEC Cells 2 h / Te% ± SEM HBMEC Cells 4 h / Te% ± SEM HBMEC Cells 24 h: Te = CLower/CUpper × 100; for Te% ± SEM HBMEC Cells 4 h: OP-1 extract 40 µg mL−1, 4 h; for Te% ± SEM HBMEC Cells 24 h: OP-1 extract 40 µg mL−1, 24 h
Protocol: The HBMEC cell line was used as a simplified in vitro model of the BBB endothelium. For this, cells were seeded at a density of 1.6 × 10^5 cells/cm^2 into 12-well Transwell® plates (0.4 μm pore, Corning Costar Corp., Corning, NY, USA) coated with rat tail collagen-I (100 μg mL^−1). Medium was changed every second day until a monolayer was formed (10 days), and the transport studies were initiated.
Medium containing 0.4% ethanol was used as the control group, and the lower chamber was filled with 1.5 mL of medium. The cells were incubated under these conditions for 2, 4, and 24 h. After incubation time, cell culture medium from both the upper and lower compartments was collected, dried using a freeze dryer (Martin Christ, Osterode am Harz, Germany), and stored at −80 °C until the chemical characterization was performed to assess the transport efficiency of the bioactive compounds.
as §1, §2, §3, §4, §5

[1] = tested on: differentiated SH-SY5Y cells; assay: Neuroprotection against H2O2-induced toxicity in SH-SY5Y cells (MTT); assay type: cell-based, human; conditions: H2O2 65 µM, 24 h
Protocol: All the experiments were performed in triplicate.
All the experiments were repeated three times.

[2] = Neuroprotection against L-glutamate-induced toxicity in SH-SY5Y cells (MTT); conditions: human
Protocol: Then, the viability was determined by the MTT assay as below. At the end of the 24 h incubation period, the medium was removed, and 0.5 mg mL^−1 MTT solution was added to each well. The cells were incubated at 37 °C for 3 h. At the end of the incubation, MTT was carefully removed, and formazan crystals in the wells were dissolved by adding 100 µL of DMSO. The absorbance of the solution was measured by a plate reader at 570 nm wavelength. Cell viability was calculated by comparing the absorbance values of treated cells with the control group (ethanol-treated cells). […] All the experiments were performed in triplicate.
In the control group, DMEM/F12 cell medium supplemented with 1% FBS, 100 U mL^−1 penicillin, 100 μg mL^−1 streptomycin, 250 ng mL^−1 antimycotic, and 0.4% ethanol was used. […] Cell viability was assessed by MTT assay at the end of the experiments. All the experiments were repeated three times.

Compound	Permeability / transport to the lower compartment in Caco-2 cells, over the incubation times tested (Caco-2 cells)	Permeability / transport to the lower compartment in HBMEC cells, over the incubation times tested (HBMEC cells)	Te% ± SEM HBMEC Cells 24 h (HBMEC cells)	further results
CC1=C(C#C/C(C)=C/C=C/C(C)=C/C=C/C=C(C)/C=C/C=C(C)/C=C/C2=C(C)CCCC2(C)C)C(C)(C)C[C@H](O)C1 [Crocoxanthin]	≈ 12% and 12.1%	≈ 3% and 3%	2.7 ± 0.6 ^a %	Te% ± SEM Caco-2 Cells 2 h (Caco-2 cells): 12.0 ± 9.5 ^a %; Te% ± SEM Caco-2 Cells 4 h (Caco-2 cells): 11.8 ± 5.6 ^a %; Te% ± SEM Caco-2 Cells 24 h (Caco-2 cells): 12.1 ± 1.5 ^a %; Te% ± SEM HBMEC Cells 2 h (HBMEC cells): 3.4 ± 3.2 ^a %; Te% ± SEM HBMEC Cells 4 h (HBMEC cells): 0.9 ± 0.3 ^b %
hydrogen peroxide [H2O2]	–	–	–	Cell viability compared to control group, neurotoxic agent alone [1]: 48%
CC1=C(/C=C/C(C)=C/C=C/C(C)=C/C=C/C=C(C)/C=C/C=C(C)/C=C/C2=C(C)CCCC2(C)C)C(C)(C)CCC1 [β-carotene]	could not be detected in the lower compartment	could not be detected in the lower compartment	–	–
C\C(C=C=C1C(C)(C)C[C@H](O)C[C@@]1(C)O)=C/C=C/C(C)=C/C=C/C=C(C)/C=C/C=C(\C)C(=O)C[C@@]12O[C@]1(C)C[C@@H](O)CC2(C)C [Fucoxanthinol]	–	–	18.94% and 18.9 ± 2.3 ^a %	Te% ± SEM Caco-2 Cells 2 h (Caco-2 cells): 7.01% and 7.0 ± 0.2 ^c %; Te% ± SEM Caco-2 Cells 2 h (Caco-2 cells; listed as fucoxanthinol): 7.0%; Te% ± SEM Caco-2 Cells 4 h (Caco-2 cells): 8.63% and 8.6 ± 2.2 ^b %; Te% ± SEM Caco-2 Cells 24 h (Caco-2 cells): 18.36% and 18.4 ± 7.2 ^a %; Te% ± SEM HBMEC Cells 2 h (HBMEC cells): 4.41% and 4.4 ± 1.1 ^c %; Te% ± SEM HBMEC Cells 2 h (HBMEC cells; listed as fucoxanthinol): 4.4%; Te% ± SEM HBMEC Cells 4 h (HBMEC cells): 5.13% and 5.1 ± 0.1 ^b %
CC(/C=C/C=C(C)/C=C/[C@@]12O[C@]1(C)C[C@@H](O)CC2(C)C)=C\C=C\C=C(C)\C=C\C=C(C)\C=C\[C@@]12O[C@]1(C)C[C@@H](O)CC2(C)C [Violaxanthin]	could not be detected; also recorded: could not pass through the intestinal epithelium	–	13.9 ± 6.0%	–
CC1=C(/C=C/C(C)=C/C=C/C(C)=C/C=C/C=C(C)/C=C/C=C(C)/C=C/[C@@]23O[C@]2(C)C[C@@H](O)CC3(C)C)C(C)(C)C[C@H](O)C1 [antheraxanthin]	could not be detected in the lower compartment	could not be detected in the lower compartment	–	–
C=C1C[C@@H](O)CC(C)(C)[C@]1(O)CC(=O)/C(C)=C/C=C/C(C)=C/C=C/C=C(C)/C=C/C=C(C)/C=C/[C@H]1C(C)=C[C@H](O)CC1(C)C [Prasinoxanthin]	could not be detected; also recorded: could not pass through the intestinal epithelium	–	8.9 ± 2.3%	–
CC(=C/C=C/C(C)=C/C=C/C=C(C)/C=C/C=C(\C)C=C=C1C(C)(C)C[C@H](O)C[C@@]1(C)O)/C=C/[C@@]12O[C@]1(C)C[C@@H](O)CC2(C)C [Neoxanthin]	≈ 0.6% and 0.6%	13.2%	13.2 ± 4.3 ^a %	Te% ± SEM Caco-2 Cells 2 h (Caco-2 cells): 0.5 ± 0.3 ^b %; Te% ± SEM Caco-2 Cells 4 h (Caco-2 cells): 0.4 ± 0.1 ^b %; Te% ± SEM Caco-2 Cells 24 h (Caco-2 cells): 0.6 ± 0.4 ^a %; Te% ± SEM HBMEC Cells 4 h (HBMEC cells): 1.4 ± 0.2 ^b %; Te% ± SEM HBMEC Cells 4 h (HBMEC cells; listed as neoxanthin): 1.4%; Te% ± SEM HBMEC Cells 24 h (HBMEC cells; listed as neoxanthin): 13.2%
CC1=C(C#C/C(C)=C/C=C/C(C)=C/C=C/C=C(C)/C=C/C=C(C)/C=C/C2=C(C)C[C@@H](O)CC2(C)C)C(C)(C)C[C@H](O)C1 [Diatoxanthin]	4.4%	8.1%	8.1 ± 3.4 ^a %	Te% ± SEM Caco-2 Cells 2 h (Caco-2 cells): 1.4 ± 0.1 ^c %; Te% ± SEM Caco-2 Cells 2 h (Caco-2 cells; listed as diatoxanthin): 1.4%; Te% ± SEM Caco-2 Cells 4 h (Caco-2 cells): 2.3 ± 0.3 ^b %; Te% ± SEM Caco-2 Cells 24 h (Caco-2 cells): 4.4 ± 0.9 ^a %; Te% ± SEM Caco-2 Cells 24 h (Caco-2 cells; listed as diatoxanthin): 4.4%; Te% ± SEM HBMEC Cells 4 h (HBMEC cells): 1.1 ± 0.1 ^b %; Te% ± SEM HBMEC Cells 4 h (HBMEC cells; listed as diatoxanthin): 1.1%; Te% ± SEM HBMEC Cells 24 h (HBMEC cells; listed as diatoxanthin): 8.1%
echinenone I	could not be detected in the lower compartment	could not be detected in the lower compartment	–	–
CC1=C(C#C/C(C)=C/C=C/C(C)=C/C=C/C=C(C)/C=C/C=C(C)/C=C/[C@@]23O[C@]2(C)C[C@@H](O)CC3(C)C)C(C)(C)C[C@H](O)C1 [diadinoxanthin]	could not be detected in the lower compartment	could not be detected in the lower compartment	–	–
CC1=CCCC(C)(C)C1/C=C/C(C)=C/C=C/C(C)=C/C=C/C=C(C)/C=C/C=C(C)/C=C/C1=C(C)CCCC1(C)C (stereo not drawn) [α-carotene]	could not be detected in the lower compartment	could not be detected in the lower compartment	–	–
echinenone II	could not be detected in the lower compartment	could not be detected in the lower compartment	–	–
zeaxanthin/lutein	could not be detected in the lower compartment	could not be detected in the lower compartment	–	–
N[C@@H](CCC(=O)O)C(=O)O [L-glutamate]	–	–	–	viability at 24 h, 23 mM [2]: 47%
